These results are taken from patent US20250154288A1, “CYTOTOXICITY TARGETING CHIMERAS FOR C-C CHEMOKINE RECEPTOR 2-EXPRESSING CELLS” (GLAXOSMITHKLINE INTELLECTUAL PROPERTY DEVELOPMENT LIMITED, priority 2022, published 2025).

Data set [1] is described as follows: Blood drug concentration analysis (LC-MS/MS) in In Vivo Depletion Assay. The conditions noted are these: human CCR2 (hCCR2) knock-in, 057 background, mouse, whole blood, hCCR2 knock-in mice, IV 0.1 mpk compound + 10 mpk anti-cotinine antibody, 48 hours post-dose, read-out: Exposure of Compound of Formula (I) 48 hours post-dose. On the procedure:
(§1) Human CCR2 (hCCR2) knock-in mice (057 background) were dosed intravenously with a PBS solution containing a compound of Formula (I) to measure depletion of CCR2 expressing cells in peripheral blood. Peripheral blood from IV dosed mice was also analyzed to determine PK properties of the ARM compounds of Formula (I).
(§2) Administration to Animal: Solution formulation of antibody and compound of Formula (I) was injected (bolus injection) to the restrained mouse in the right/left lateral tail vein. Animals were dosed with 0.1 milligram per kilogram (mpk) of the compound of Formula (I) and 10 mpk of the anti-cotinine antibody.
Collection of Blood for PK: Blood was collected at time points 0.25 hour, 2 hours, and […] following administration (50 μL/time point) through retro-orbital bleeding under mild isoflurane anesthesia.
(§3) Terminal bleeding at end of experiment (48 hr): Approximately 250 μL of blood in K2EDTA tube and approximately 250 μL of blood in SST (serum separation tube) was collected from each mouse through retro-orbital bleeding under deep isoflurane anesthesia. After bleeding, each mouse was sacrificed by cervical dislocation. The blood distribution at termination was determined as follows: • For PK: 50 μL of K2EDTA blood was transferred to another tube for PK • Flow cytometry: Remaining blood (˜200 μL) was used for flow cytometry analysis. • For serum collection: serum separator tubes (BD) were centrifuged at 4° C., 5000 rpm for 15 minutes. Approximately 100 μL serum was separated and stored at −80° C. for further usage. • Blood drug concentration: Samples collected at the various timepoints (0.25 hr, 2 hr, 24 and 48 hr) were analyzed to determine blood drug concentration.
Drug concentration in blood samples was determined by an LC-MS/MS-based bioanalytical method developed at Syngene. Samples were analyzed on Q-Trap, API-5500 LC-MS/MS system coupled with Exion UHPLC system from SCIEX, USA operated in multiple reaction monitoring mode employing electrospray ionization technique in positive polarity. Analyte and internal standard peaks were resolved on Synergi Polar, 75×2.0 mm, 4μ column using mobile phase 10 mM Ammonium acetate in Milli-Q water as phase A and 0.1% Formic acid in acetonitrile as Phase B. Gradient elution was performed with initial composition 95% Phase A at 0.0 min, holding it for 0.2 minutes, ramping to 5% by 1.0 minute, keeping the same for next 0.5 minutes and coming back to 95% by 1.6 minutes. The total run time was 2 minutes.
Working dilutions for calibration curve and quality control standards were prepared by serially diluting 20 mg/mL stock solution with DMSO. Spiked concentrations for calibration curve in the whole blood ranged from 1 ng/mL to 1000 ng/mL. The working solution of internal standard (Verapamil, 25 ng/mL) was prepared in acetonitrile. 10 μL of the study sample and calibration curve, quality control, and blank whole blood samples were aliquoted in 96 deep well plates for processing. 10 μL of Milli-Q water was added to all the samples and briefly vortexed to initiate complete hemolysis. 10 μL of 20 mM dithiothreitol (OTT) was added to all the samples and incubated for 30 minutes at 37° C. The addition of DTT enhanced the recovery of ARM compounds of Formula (I) from the biological matrix. 300 μL of working internal standard solution was added to all samples except total blank and wash samples, where 300 μL of acetonitrile was added. All the samples were vortex mixed for 5 minutes, followed by centrifugation at 4000 rpm for 10 minutes at 4° C. Supernatants were transferred to the loading plate and injected 3 μL to LC-MS/MS system for analysis. The results are shown below in Table 4 and are reported as compound exposure 48 hours post-dose

Data set [2] has as its system CCR2 expressing cells (CD11b+Ly6c+ Hi) in peripheral blood. Description: In Vivo Depletion Assay (flow cytometry of peripheral blood). More on the design: species or system Human CCR2 (hCCR2) knock-in mice. To be noted: hCCR2 knock-in mice; IV 0.1 mpk compound + 10 mpk anti-cotinine antibody (mouse IgG2a Fc); peripheral blood at 48 hr. On the procedure:
as §1
Stock solution preparation: Stock solutions of compounds of Formula (I) were prepared at 20 mg/mL and 100 mg/mL in DMSO for PK/PD and dose tolerability studies respectively. Stock solutions were stored at −20° C. until further usage.
Formulations preparation: On the day of experiment, the stock solution of the compound of Formula (I) was removed from storage at −20° C. and thawed at room temperature. Anti-cotinine antibody having a heavy chain sequence of SEQ ID NO: 13 and a light chain sequence of SEQ ID NO: 14 (rabbit variable region sequence with mouse IgG2a Fc domain), if required was removed from storage at −80° C. and thawed at room temperature. Antibody vials were immediately transferred into wet ice after thawing. Compounds of Formula (I) were further diluted in DMSO as per experimental requirements.
Formulation composition: The formulation composition was Saline: DMSO: PBS. Saline was added based on the quantity required and then stock solution of the compound of Formula (I) prepared in DMSO, followed by addition of antibody in PBS. Formulations were incubated at room temperature for 30 minutes before administration to the mouse. DMSO was used at 1 to 2% (v/v) in the final formulation.
as §2, §3
CCR2 depletion in peripheral blood was determined by flow cytometry. Briefly, peripheral blood was collected from all animals at the end of study termination and processed. Blood samples were lysed using 1×RBC Lysis buffer and the resulting cell pellet was washed twice in FACS buffer (HBSS containing 5% FBS). Cells were subjected to Fc blocking using mouse Fc block from Biolegend (Trustain, anti-mouse CD16/32, Cat: 101319) to block non-specific binding followed by surface staining for immune markers (CD45, CD3, CD11b, Ly6C, human CCR2). Surface staining was done for 30 minutes in ice and cells were washed twice to remove unbound antibodies. Cells were stained with 7AAD to determine viability and acquired on BD FACSVerse flow cytometer. Appropriate FMO controls and single-color controls were included in the experiment for gating and compensation respectively.
Percent depletion of CD11b+Ly6c+ Hi cells and CCR2 expression for the different treatment groups was determined. The results are shown below in Table 4 and are reported as percent (%) depletion of CCR2 expressing cells.

Counter-ions that a name gives are not always drawn.

Regarding `CO[C@@H]1COCC[C@@H]1N[C@@H]1CC[C@@](C(=O)N2Cc3cc(C(F)(F)F)cnc3[C@H](NC(=O)[C@H]3CC[C@H](NC(=O)CCCO[C@H]4CC[C@H](OCCNC(=O)[C@H]5CC(=O)N(C)[C@@H]5c5cccnc5)CC4)CC3)C2)(C(C)C)C1` [Example 14, (2S,3S)-N-(2-(((1R,4S)-4-(4-(((1R,4R)-4-(((R)-6-((1S,3R)-1-isopropyl-3-(((3S,4S)-3-methoxytetrahydro-2H-pyran-4-yl)amino)cyclopentane-1-carbonyl)-3-(trifluoromethyl)-5,6,7,8-tetrahydro-1,6-naphthyridin-8-yl)carbamoyl)cyclohexyl)amino)-4-oxobutoxy)cyclohexyl)oxy)ethyl)-1-methyl-5-oxo-2-(pyridin-3-yl)pyrrolidine-3-carboxamide, 3Formic acid salt], in data set [1], the concentration at 48 h is 41.4 ng/mL. Besides, the “% Depletion of CCR2 expressing cells” value in data set [2] amounted to 92.3%.

For the compound `CO[C@@H]1COCC[C@@H]1N[C@@H]1CC[C@](CCCNC(=O)[C@H]2CC[C@@H](NC(=O)CCOCCOCCOCCNC(=O)[C@H]3CC(=O)N(C)[C@@H]3c3cccnc3)CC2)(C(=O)N2CCc3ncc(C(F)(F)F)cc3C2)C1` [Example 17, (2S,3S)—N-(2-(2-(2-(3-(((1R,4s)-4-((3-((1S,3R)-3-(((3S,4S)-3-Methoxytetrahydro-2H-pyran-4-yl)amino)-1-(3-(trifluoromethyl)-5,6,7,8-tetrahydro-1,6-naphthyridine-6-carbonyl)cyclopentyl)propyl)carbamoyl)cyclohexyl)amino)-3-oxopropoxy)ethoxy)ethoxy)ethyl)-1-methyl-5-oxo-2-(pyridin-3-yl)pyrrolidine-3-carboxamide, Formic acid salt], in data set [1], the concentration at 48 h was determined as 28.3 ng/mL. Besides, in data set [2], the “% Depletion of CCR2 expressing cells” value worked out at 96.07%.

Consider `CO[C@@H]1COCC[C@@H]1N[C@@H]1CC[C@](CCCCCNC(=O)[C@H]2CC[C@H](NC(=O)CCCO[C@H]3CC[C@H](OCCNC(=O)[C@H]4CC(=O)N(C)[C@@H]4c4cccnc4)CC3)CC2)(C(=O)N2CCc3ncc(C(F)(F)F)cc3C2)C1` [Example 9, (2S,3S)-N-(2-(((1R,4S)-4-(4-(((1S,4R)-4-((5-((1S,3R)-3-(((3S,4S)-3-Methoxytetrahydro-2H-pyran-4-yl)amino)-1-(3-(trifluoromethyl)-5,6,7,8-tetrahydro-1,6-naphthyridine-6-carbonyl)cyclopentyl)pentyl)carbamoyl)cyclohexyl)amino)-4-oxobutoxy)cyclohexyl)oxy)ethyl)-1-methyl-5-oxo-2-(pyridin-3-yl)pyrrolidine-3-carboxamide], for which the concentration at 48 h in data set [1] was 49.8 ng/mL. Further, the “% Depletion of CCR2 expressing cells” value in data set [2] stood at 99%.

For the compound `CO[C@@H]1COCC[C@@H]1N[C@@H]1CC[C@](CCNC(=O)[C@H]2CC[C@H](NC(=O)CCCO[C@H]3CC[C@H](OCCNC(=O)[C@H]4CC(=O)N(C)[C@@H]4c4cccnc4)CC3)CC2)(C(=O)N2CCc3ncc(C(F)(F)F)cc3C2)C1` [Example 8, (2S,3S)-N-(2-(((1R,4S)-4-(4-(((1R,4R)-4-((2-((1R,3R)-3-(((3S,4S)-3-Methoxytetrahydro-2H-pyran-4-yl)amino)-1-(3-(trifluoromethyl)-5,6,7,8-tetrahydro-1,6-naphthyridine-6-carbonyl)cyclopentyl)ethyl)carbamoyl)cyclohexyl)amino)-4-oxobutoxy)cyclohexyl)oxy)ethyl)-1-methyl-5-oxo-2-(pyridin-3-yl)pyrrolidine-3-carboxamide], the concentration at 48 h in data set [1] came to 74.9 ng/mL. Besides, the “% Depletion of CCR2 expressing cells” value in data set [2] was determined as 99.22%.

For the compound `CO[C@H]1COCC[C@H]1N[C@H]1CC[C@@](CCCNC(=O)[C@H]2CC[C@@H](NC(=O)CCOCCOCCNC(=O)CCNC(=O)[C@H]3CC(=O)N(C)[C@@H]3c3cccnc3)CC2)(C(=O)N2CCc3ncc(C(F)(F)F)cc3C2)C1` [Example 19, (2S,3S)—N-(3-((2-(2-(3-(((1s,4s)-4-((3-((1R,3S)-3-(((3R,4R)-3-Methoxytetrahydro-2H-pyran-4-yl)amino)-1-(3-(trifluoromethyl)-5,6,7,8-tetrahydro-1,6-naphthyridine-6-carbonyl)cyclopentyl)propyl)carbamoyl)cyclohexyl)amino)-3-oxopropoxy)ethoxy)ethyl)amino)-3-oxopropyl)-1-methyl-5-oxo-2-(pyridin-3-yl)pyrrolidine-3-carboxamide], in data set [1], the concentration at 48 h turned out to be 54.2 ng/mL. Further, in data set [2], the “% Depletion of CCR2 expressing cells” value is reported as 85.39%.

As for `CO[C@@H]1COCC[C@@H]1N[C@@H]1CC[C@](CCCNC(=O)[C@H]2CC[C@@H](NC(=O)CCCO[C@H]3CC[C@@H](OCCNC(=O)[C@H]4CC(=O)N(C)[C@@H]4c4cccnc4)CC3)CC2)(C(=O)N2CCc3ncc(C(F)(F)F)cc3C2)C1` [Example 4, (2S,3S)-N-(2-(((1S,4R)-4-(4-(((1R,4S)-4-((3-((1S,3R)-3-(((3S,4S)-3-Methoxytetrahydro-2H-pyran-4-yl)amino)-1-(3-(trifluoromethyl)-5,6,7,8-tetrahydro-1,6-naphthyridine-6-carbonyl)cyclopentyl)propyl)carbamoyl)cyclohexyl)amino)-4-oxobutoxy)cyclohexyl)oxy)ethyl)-1-methyl-5-oxo-2-(pyridin-3-yl)pyrrolidine-3-carboxamide, Formic acid salt], the concentration at 48 h in data set [1] was 26.6 ng/mL. The “% Depletion of CCR2 expressing cells” value in data set [2] is 99.69%.

Consider `CO[C@@H]1COCC[C@@H]1N[C@@H]1CC[C@](CCCNC(=O)[C@H]2CC[C@H](NC(=O)CCCO[C@H]3CC[C@H](OCCNC(=O)[C@H]4CC(=O)N(C)[C@@H]4c4cccnc4)CC3)CC2)(C(=O)N2CCc3ncc(C(F)(F)F)cc3C2)C1` [Example 3, (2S,3S)-N-(2-(((1R,4S)-4-(4-(((1S,4R)-4-((3-((1S,3R)-3-(((3S,4S)-3-Methoxytetrahydro-2H-pyran-4-yl)amino)-1-(3-(trifluoromethyl)-5,6,7,8-tetrahydro-1,6-naphthyridine-6-carbonyl)cyclopentyl)propyl)carbamoyl)cyclohexyl)amino)-4-oxobutoxy)cyclohexyl)oxy)ethyl)-1-methyl-5-oxo-2-(pyridin-3-yl)pyrrolidine-3-carboxamide], for which, in data set [1], the concentration at 48 h was found to be 31.3 ng/mL. Besides, in data set [2], the “% Depletion of CCR2 expressing cells” value is reported as 98.4%.
